Experiment [1] can be described thus: Inhibition of Ras assessed as inhibition of intrinsic nucleotide exchange in cell-based assay.
A short description of experiment [2]: Binding affinity to Ras SOS1 binding site.
Experiment [3] concerns the target GTPase KRas (Homo sapiens, UniProt P01116, G12D). The experiment can be described thus: Binding affinity to K-Ras G12D mutant-GDP complex.
In experiment [4] the target is GTPase NRas (Homo sapiens, UniProt P01111). The experiment can be described thus: Inhibition of N-Ras expressed in Escherichia coli using [3H]GDP and [3H]GTP assessed as inhibition of intrinsic nucleotide exchange by scintillation counting.
GTPase NRas, sequence (P01111 whole entry): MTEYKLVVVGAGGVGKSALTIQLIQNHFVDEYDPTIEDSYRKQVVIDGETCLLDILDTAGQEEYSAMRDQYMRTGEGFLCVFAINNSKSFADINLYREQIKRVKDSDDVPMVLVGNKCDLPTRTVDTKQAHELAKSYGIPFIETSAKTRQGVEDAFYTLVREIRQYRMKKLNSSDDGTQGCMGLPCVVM
Experiment [5] addresses T1, Son of sevenless homolog 1 (Homo sapiens, UniProt Q07889).
T1 sequence (Q07889 whole entry): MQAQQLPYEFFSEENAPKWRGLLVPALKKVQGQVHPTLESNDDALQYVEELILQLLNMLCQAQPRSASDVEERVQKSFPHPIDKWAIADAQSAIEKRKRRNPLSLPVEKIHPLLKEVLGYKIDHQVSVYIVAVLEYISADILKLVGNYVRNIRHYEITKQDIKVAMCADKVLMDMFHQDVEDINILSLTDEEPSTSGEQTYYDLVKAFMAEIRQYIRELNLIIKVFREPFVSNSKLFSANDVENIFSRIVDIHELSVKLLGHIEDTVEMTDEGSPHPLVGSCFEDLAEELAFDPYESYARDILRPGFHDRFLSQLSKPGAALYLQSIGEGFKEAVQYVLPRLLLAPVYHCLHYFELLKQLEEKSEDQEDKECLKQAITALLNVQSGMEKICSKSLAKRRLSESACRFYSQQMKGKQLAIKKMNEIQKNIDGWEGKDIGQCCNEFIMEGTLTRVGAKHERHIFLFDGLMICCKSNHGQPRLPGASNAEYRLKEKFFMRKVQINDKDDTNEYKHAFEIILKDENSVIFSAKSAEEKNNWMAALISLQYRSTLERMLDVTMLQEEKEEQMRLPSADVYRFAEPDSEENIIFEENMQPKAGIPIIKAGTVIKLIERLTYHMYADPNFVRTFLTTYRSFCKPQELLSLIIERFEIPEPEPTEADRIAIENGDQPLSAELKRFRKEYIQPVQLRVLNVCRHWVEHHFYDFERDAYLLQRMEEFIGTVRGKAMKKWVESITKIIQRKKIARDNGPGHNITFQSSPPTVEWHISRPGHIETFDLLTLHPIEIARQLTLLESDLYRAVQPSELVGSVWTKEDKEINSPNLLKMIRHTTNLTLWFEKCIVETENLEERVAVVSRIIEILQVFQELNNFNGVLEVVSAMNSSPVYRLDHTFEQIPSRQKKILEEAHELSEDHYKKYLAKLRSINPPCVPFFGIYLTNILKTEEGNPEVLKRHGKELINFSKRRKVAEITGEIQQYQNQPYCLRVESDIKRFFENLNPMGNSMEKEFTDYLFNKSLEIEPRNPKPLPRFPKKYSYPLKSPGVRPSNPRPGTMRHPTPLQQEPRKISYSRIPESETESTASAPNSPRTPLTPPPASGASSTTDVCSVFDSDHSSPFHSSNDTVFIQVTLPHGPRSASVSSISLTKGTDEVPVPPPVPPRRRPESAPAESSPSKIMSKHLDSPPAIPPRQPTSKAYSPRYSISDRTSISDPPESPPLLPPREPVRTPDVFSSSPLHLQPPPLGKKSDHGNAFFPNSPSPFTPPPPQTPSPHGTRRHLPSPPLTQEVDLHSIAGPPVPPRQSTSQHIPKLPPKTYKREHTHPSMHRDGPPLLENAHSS
Description: Inhibition to His6-tagged Sos1 catalytic domain-mediated nucleotide exchange by fluorimetric assay.

GTPase KRas, sequence (P01116 whole entry G12D): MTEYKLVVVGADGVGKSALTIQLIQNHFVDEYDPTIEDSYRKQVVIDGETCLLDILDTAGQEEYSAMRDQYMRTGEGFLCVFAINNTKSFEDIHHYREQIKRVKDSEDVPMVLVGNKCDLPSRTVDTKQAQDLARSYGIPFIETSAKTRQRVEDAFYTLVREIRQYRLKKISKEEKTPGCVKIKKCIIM

Turning to `O=S(=O)(NCCOc1ccc2ccccc2c1)c1ccc(NO)cc1`, the EC50 in experiment [1] was 10 µM.

Regarding `Nc1cccc(NS(=O)(=O)c2ccc(F)cc2)n1`, in experiment [2], the Activity is 1.3 mM. Same read-out and setting: as for `c1ccc2c(Cc3nc4ccncc4[nH]3)c[nH]c2c1`, the figure is 1.3 mM.

`CC[C@H](C)[C@H](N)C(=O)Nc1ccc2nc(Cc3c[nH]c4ccccc34)[nH]c2c1` registered a Kd in experiment [3] of 190 µM.

For `O=S(=O)(c1ccc(NO)cc1)N(CCOc1ccc2ccccc2c1)[C@@H]1O[C@H](CO)[C@@H](O)[C@H](O)[C@H]1O`, in experiment [4], the IC50 stood at 0.5 µM.

With `CC[C@H](C)[C@H](NC(=O)CN1C/C=C\CCC(=O)N[C@@H](Cc2ccccc2)C(=O)N[C@@H](CCC(=O)O)C1=O)C(=O)N[C@@H](Cc1ccc(O)cc1)C(=O)N[C@@H](CCCNC(=N)N)C(=O)N[C@@H](CC(C)C)C(=O)N[C@@H](CCC(=O)O)C(=O)N[C@@H](CC(C)C)C(=O)N[C@@H](CC(C)C)C(=O)N[C@@H](CCCCN)C(=O)N[C@@H](C)C(=O)N[C@@H](CCC(=O)O)C(=O)N[C@@H](CCC(=O)O)C(=O)N[C@@H](C)C(=O)N[C@@H](CC(N)=O)C(N)=O`, in experiment [5], the IC50 is 25 µM. With `Oc1ccccc1C(=S)N1CCCC1`, the Activity in experiment [2] was 1.3 mM.

The record behind these values is ChEMBL document CHEMBL2086330, “Ras inhibition via direct Ras binding--is there a path forward?” (Bioorg Med Chem Lett, 2012).
